Source: the supplement of paper PMC10307832

How the values were obtained:
Bleomycin + Trametinib = compound: CC1=C(N=C(N=C1N)[C@H](CC(=O)N)NC[C@@H](C(=O)N)N)C(=O)N[C@@H]([C@H](C2=CN=CN2)OC3C(C(C(C(O3)CO)O)O)OC4C(C(C(C(O4)CO)O)OC(=O)N)O)C(=O)N[C@H](C)[C@H]([C@H](C)C(=O)N[C@@H]([C@@H](C)O)C(=O)NCCC5=NC(=CS5)C6=NC(=CS6)C(=O)NCCC[S+](C)C)O [Bleomycin] + CC(=O)Nc1cccc(-n2c(=O)n(C3CC3)c(=O)c3c(Nc4ccc(I)cc4F)n(C)c(=O)c(C)c32)c1 [Trametinib] (partner 0.02 µM); test: relative viability (nuclei count vs DMSO), 5 days (fraction); higher = more cells survive; conditions: main component drawn
How it was run: (§1)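 Lung cancer cell lines in 1536-well plates were dosed by pin tool the day after seeding, either with one drug alone or with a fixed anchor-drug dose plus five library-drug doses (not always all listed) in √10 steps. After 5 days, cells were fixed and their nuclei stained in one step (final 0.05% Triton X-100, 1% formaldehyde, 1 ug/ml Hoechst), then counted on 4× images. Relative viability is the nuclei count in treated wells divided by that in vehicle wells. Values are medians of duplicate plates.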

Bleomycin + AZD7762 = compound: CC1=C(N=C(N=C1N)[C@H](CC(=O)N)NC[C@@H](C(=O)N)N)C(=O)N[C@@H]([C@H](C2=CN=CN2)OC3C(C(C(C(O3)CO)O)O)OC4C(C(C(C(O4)CO)O)OC(=O)N)O)C(=O)N[C@H](C)[C@H]([C@H](C)C(=O)N[C@@H]([C@@H](C)O)C(=O)NCCC5=NC(=CS5)C6=NC(=CS6)C(=O)NCCC[S+](C)C)O [Bleomycin] + NC(=O)Nc1cc(-c2cccc(F)c2)sc1C(=O)N[C@H]1CCCNC1 [AZD7762] (partner 0.2 µM); test: as above; conditions: main component drawn
How it was run: as §1

Cell Line	relative viability (Bleomycin + Trametinib; first compound 0.01 µM)	relative viability (Bleomycin + Trametinib; first compound 0.03162 µM)	relative viability (Bleomycin + Trametinib; first compound 0.1 µM)	relative viability (Bleomycin + Trametinib; first compound 0.3162 µM)	relative viability (Bleomycin + Trametinib; first compound 1 µM)	relative viability (Bleomycin + AZD7762; first compound 0.01 µM)	relative viability (Bleomycin + AZD7762; first compound 0.03162 µM)	relative viability (Bleomycin + AZD7762; first compound 0.1 µM)	relative viability (Bleomycin + AZD7762; first compound 0.3162 µM)	relative viability (Bleomycin + AZD7762; first compound 1 µM)
201T	0.697	0.731	0.673	0.598	0.555	0.487	0.543	0.438	0.422	0.334
A-427	0.607	0.558	0.417	0.261	0.212	0.7	0.748	0.542	0.353	0.241
ABC-1						0.748	1	0.845	0.573	0.34
BEN	1.03	0.959	1.05	0.863	0.849	0.735	0.736	0.66	0.534	0.606
CAL-12T	0.339	0.326	0.294	0.174	0.18	0.497	0.603	0.436	0.289	0.24
COR-L23	0.432	0.518	0.303	0.133	0.129					
COR-L 105	0.459	0.417	0.419	0.369	0.332					
ChaGo-K-1	0.775	0.744	0.704	0.547	0.366	0.785	0.824	0.808	0.692	0.504
EKVX	0.396	0.298	0.301	0.196	0.158	0.607	0.598	0.544	0.538	0.237
EMC-BAC-2		0.6	0.535	0.306	0.29	0.96	1.05	1.08	0.607	0.415
EPLC-272H	0.302	0.256	0.207	0.193	0.184	0.208	0.192	0.145	0.114	0.112
H3255	0.575	0.506	0.629	0.485	0.357	0.905	0.819	0.713	0.55	0.401
HARA	0.899	0.325	0.448	0.347	0.328	0.281	0.299	0.306	0.226	0.244
HCC-15	0.348	0.338	0.365	0.209	0.186	1.07	1.03	1.13	0.579	0.599
HCC-44	0.914	0.924	0.827	0.369	0.388	0.955	1	0.965	0.646	0.573
HCC-78	0.575	0.679	0.651	0.632	0.593	0.607	0.683	0.599	0.528	0.493
HCC-366	0.219	0.144	0.147	0.0475	0.0448	0.305	0.231	0.156	0.065	0.0338

Cell Line	relative viability (Bleomycin + Trametinib; first compound 0.01 µM)	relative viability (Bleomycin + Trametinib; first compound 0.03162 µM)	relative viability (Bleomycin + Trametinib; first compound 0.1 µM)	relative viability (Bleomycin + Trametinib; first compound 0.3162 µM)	relative viability (Bleomycin + Trametinib; first compound 1 µM)	relative viability (Bleomycin + AZD7762; first compound 0.01 µM)	relative viability (Bleomycin + AZD7762; first compound 0.03162 µM)	relative viability (Bleomycin + AZD7762; first compound 0.1 µM)	relative viability (Bleomycin + AZD7762; first compound 0.3162 µM)	relative viability (Bleomycin + AZD7762; first compound 1 µM)
HCC-827	0.495		0.502	0.273	0.209	0.195		0.199	0.148	0.167
HOP-62	0.34	0.278	0.264	0.203	0.159	0.325	0.292	0.209	0.16	0.0932
LC-2-ad	0.736	0.674	0.541	0.291	0.243	0.761	0.775	0.644	0.316	0.26
LCLC-97TM1	0.169	0.195	0.16	0.169	0.106	0.135	0.141	0.102	0.0831	0.0741
LCLC-103H	0.628	0.678	0.62	0.691	0.507	0.7	0.8	0.792	0.666	0.418
LK-2	0.474	0.389	0.449	0.263	0.254	0.26	0.271	0.218	0.134	0.116
LOU-NH91	0.669	0.547	0.484	0.409	0.357	0.715	0.667	0.576	0.421	0.369
LU99A	0.485	0.485	0.438	0.22	0.173	0.298	0.261	0.203	0.157	0.121
LXF-289	0.599	0.664	0.634	0.459	0.2	1.01	1.07	0.928	0.419	0.143
NCI-H23	0.226	0.321	0.189	0.161	0.144	0.259	0.241	0.159	0.121	0.119
NCI-H322M	0.477	0.524	0.479	0.385	0.504	0.529	0.523	0.564	0.436	0.416
NCI-H358	0.138	0.138	0.127	0.138	0.108	0.417	0.579	0.551	0.426	0.446
NCI-H441	0.398	0.408	0.431	0.298	0.357	1.05	0.977	1.17	0.689	0.775
NCI-H460	0.107	0.0848	0.0692	0.0357	0.0155	0.409	0.475	0.269	0.134	0.0663
NCI-H520	0.673	0.608	0.814	0.547	0.394					
NCI-H522	0.776	0.705	0.763	0.433	0.379	0.76	0.796	0.65	0.519	0.468
